Reference: ChEMBL document CHEMBL1201862, “PubChem BioAssay data set” (2004)
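96-well plates; 48 h exposure; 5 concentrations. Endpoints by linear interpolation between flanking doses. Not reached: highest tested concentration assigned. GI50 is the concentration that inhibits growth by half.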 The source made the active and inactive calls. Cut-off read from the data, not from the text of the source: active = GI50 up to about 1.1 µM and inactive = higher.

Assays:
Assay in all cases: NCI anticancer screen, dose series, 48 h
786-0 = test system: 786-0
A498 = test system: A498
A549 = test system: A549
ACHN = test system: ACHN
CAKI-1 = test system: CAKI-1
CCRF-CEM = test system: CCRF-CEM
COLO 205 = test system: COLO 205
DU-145 = test system: DU-145
EKVX = test system: EKVX
HCC 2998 = test system: HCC 2998
HCT-116 = test system: HCT-116
HCT-15 = test system: HCT-15
HOP-62 = test system: HOP-62
HT-29 = test system: HT-29
Hs-578T = test system: Hs-578T
IGROV-1 = test system: IGROV-1
K562 = test system: K562
KM12 = test system: KM12
LOX IMVI = test system: LOX IMVI
M14 = test system: M14
MCF7 = test system: MCF7
MDA-MB-231 = test system: MDA-MB-231
MDA-MB-435 = test system: MDA-MB-435
MDA-N = test system: MDA-N
MOLT-4 = test system: MOLT-4
Malme-3M = test system: Malme-3M
NCI-H226 = test system: NCI-H226
NCI-H460 = test system: NCI-H460
NCI-H522 = test system: NCI-H522
NCI/ADR-RES = test system: NCI/ADR-RES
OVCAR-3 = test system: OVCAR-3
OVCAR-4 = test system: OVCAR-4
OVCAR-5 = test system: OVCAR-5
OVCAR-8 = test system: OVCAR-8
PC-3 = test system: PC-3
RPMI-8226 = test system: RPMI-8226
RXF 393 = test system: RXF 393
SF-268 = test system: SF-268
SF-295 = test system: SF-295
SF-539 = test system: SF-539
SK-MEL-28 = test system: SK-MEL-28
SK-MEL-2 = test system: SK-MEL-2
SK-MEL-5 = test system: SK-MEL-5
SK-OV-3 = test system: SK-OV-3
SN12C = test system: SN12C
SNB-19 = test system: SNB-19
SNB-75 = test system: SNB-75
SW-620 = test system: SW-620
T47D = test system: T47D
TK-10 = test system: TK-10
U-251 = test system: U-251
UACC-257 = test system: UACC-257
UACC-62 = test system: UACC-62
UO-31 = test system: UO-31
HL-60 = test system: HL-60
HOP-92 = test system: HOP-92
NCI-H23 = test system: NCI-H23
SR = test system: SR

CSc1nc2c(N)ncnc2n1C
GI50 (786-0): > 100 µM (inactive)
GI50 (A498): > 100 µM (inactive)
GI50 (A549): > 100 µM (inactive)
GI50 (ACHN): > 100 µM (inactive)
GI50 (CAKI-1): > 100 µM (inactive)
GI50 (CCRF-CEM): > 100 µM (inactive)
GI50 (COLO 205): > 100 µM (inactive)
GI50 (DU-145): > 100 µM (inactive)
GI50 (EKVX): > 100 µM (inactive)
GI50 (HCC 2998): > 100 µM (inactive)
GI50 (HCT-116): > 100 µM (inactive)
GI50 (HCT-15): > 100 µM
GI50 (HOP-62): > 100 µM (inactive)
GI50 (HT-29): > 100 µM (inactive)
GI50 (Hs-578T): > 100 µM (inactive)
GI50 (IGROV-1): > 100 µM (inactive)
GI50 (K562): > 100 µM (inactive)
GI50 (KM12): > 100 µM (inactive)
GI50 (LOX IMVI): > 100 µM (inactive)
GI50 (M14): > 100 µM (inactive)
GI50 (MCF7): > 100 µM (inactive)
GI50 (MDA-MB-231): > 100 µM (inactive)
GI50 (MDA-MB-435): > 100 µM (inactive)
GI50 (MDA-N): > 100 µM (inactive)
GI50 (MOLT-4): > 100 µM (inactive)
GI50 (Malme-3M): > 100 µM (inactive)
GI50 (NCI-H226): > 100 µM (inactive)
GI50 (NCI-H460): > 100 µM (inactive)
GI50 (NCI-H522): > 100 µM (inactive)
GI50 (NCI/ADR-RES): > 100 µM (inactive)
GI50 (OVCAR-3): > 100 µM (inactive)
GI50 (OVCAR-4): > 100 µM (inactive)
GI50 (OVCAR-5): > 100 µM (inactive)
GI50 (OVCAR-8): > 100 µM (inactive)
GI50 (PC-3): > 100 µM (inactive)
GI50 (RPMI-8226): > 100 µM (inactive)
GI50 (RXF 393): > 100 µM (inactive)
GI50 (SF-268): > 100 µM (inactive)
GI50 (SF-295): > 100 µM (inactive)
GI50 (SF-539): > 100 µM (inactive)
GI50 (SK-MEL-28): > 100 µM (inactive)
GI50 (SK-MEL-2): > 100 µM (inactive)
GI50 (SK-MEL-5): > 100 µM (inactive)
GI50 (SK-OV-3): > 100 µM (inactive)
GI50 (SN12C): > 100 µM (inactive)
GI50 (SNB-19): > 100 µM (inactive)
GI50 (SNB-75): 82.8 µM (inactive)
GI50 (SW-620): > 100 µM (inactive)
GI50 (T47D): > 100 µM (inactive)
GI50 (TK-10): > 100 µM (inactive)
GI50 (U-251): > 100 µM (inactive)
GI50 (UACC-257): > 100 µM (inactive)
GI50 (UACC-62): > 100 µM (inactive)
GI50 (UO-31): > 100 µM (inactive)

O=C(/C=C/c1ccc(Cl)cc1)Oc1ccc(/C=C2\CCCCC2=O)cc1
GI50 (786-0): > 100 µM (inactive)
GI50 (A498): > 100 µM (inactive)
GI50 (A549): > 100 µM (inactive)
GI50 (ACHN): > 100 µM (inactive)
GI50 (CAKI-1): > 100 µM (inactive)
GI50 (CCRF-CEM): 55.5 µM (inactive)
GI50 (COLO 205): > 100 µM (inactive)
GI50 (DU-145): > 100 µM (inactive)
GI50 (EKVX): > 100 µM (inactive)
GI50 (HCC 2998): > 100 µM (inactive)
GI50 (HCT-116): > 100 µM (inactive)
GI50 (HCT-15): > 100 µM
GI50 (HL-60): 50.7 µM (inactive)
GI50 (HOP-62): > 100 µM (inactive)
GI50 (HOP-92): > 100 µM (inactive)
GI50 (HT-29): 23 µM (inactive)
GI50 (Hs-578T): > 100 µM (inactive)
GI50 (IGROV-1): > 100 µM (inactive)
GI50 (KM12): > 100 µM (inactive)
GI50 (LOX IMVI): > 100 µM (inactive)
GI50 (M14): > 100 µM (inactive)
GI50 (MCF7): > 100 µM (inactive)
GI50 (MDA-MB-231): > 100 µM (inactive)
GI50 (MDA-MB-435): > 100 µM (inactive)
GI50 (MDA-N): > 100 µM (inactive)
GI50 (MOLT-4): 28.8 µM (inactive)
GI50 (Malme-3M): > 100 µM (inactive)
GI50 (NCI-H23): > 100 µM (inactive)
GI50 (NCI-H460): > 100 µM (inactive)
GI50 (NCI-H522): 50.8 µM (inactive)
GI50 (OVCAR-3): > 100 µM (inactive)
GI50 (OVCAR-4): > 100 µM (inactive)
GI50 (OVCAR-5): > 100 µM (inactive)
GI50 (OVCAR-8): > 100 µM (inactive)
GI50 (PC-3): > 100 µM (inactive)
GI50 (RPMI-8226): > 100 µM (inactive)
GI50 (SF-268): 69.7 µM (inactive)
GI50 (SF-295): > 100 µM (inactive)
GI50 (SF-539): > 100 µM (inactive)
GI50 (SK-MEL-28): > 100 µM (inactive)
GI50 (SK-MEL-2): > 100 µM (inactive)
GI50 (SK-MEL-5): > 100 µM (inactive)
GI50 (SN12C): > 100 µM (inactive)
GI50 (SNB-19): > 10 µM (inactive)
GI50 (SNB-75): > 100 µM (inactive)
GI50 (SR): > 100 µM (inactive)
GI50 (SW-620): > 100 µM (inactive)
GI50 (T47D): > 100 µM (inactive)
GI50 (TK-10): > 100 µM (inactive)
GI50 (U-251): > 100 µM (inactive)
GI50 (UACC-257): > 100 µM (inactive)
GI50 (UACC-62): > 100 µM (inactive)
GI50 (UO-31): > 100 µM (inactive)
